Data set [1] relates to P-STAT3 (Y705), JAK2 substrate. In words: Western blot, phosphorylation of STAT3 in MDA-MB-468 cells. Conditions: MDA-MB-468, increasing concentrations, 2 h. It counts as cell-based, human. The procedure: (§1) Cells were plated in 6 cm dishes at a density of 2 × 10^5 cells/dish. Aurora A activity was determined by measuring autophosphorylation of Aurora A on Thr288 in cells that were synchronized by treatment with nocodazole (100 ng/mL) for 20 h prior to the treatment with Aurora inhibitors, whereas Aurora B activity was determined by measuring phosphorylation of histone H3 on Ser-10 (p-HH3). […] Cells were harvested after 2 h of treatment and processed for SDS−PAGE and Western blotting.
(§2) Cells were harvested from experiments of ectopic expression or knockdown using siRNA or the treatment with the inhibitors, washed, and then lysed using lysis buffer as previously described. The protein concentration of the lysate was measured, and the lysate was mixed with gel electrophoresis loading buffer, boiled for 5 minutes, separated by SDS-PAGE, and transferred to nitrocellulose membranes.
Background: Immunoblotting shows a protein as a band on a membrane.

Data set [2] can be described thus: Mouse weights during xenograft study. It counts as in vivo, nude mice. Conditions: 50 mpk i.p. daily, over the 14-day treatment period; vehicle 3.33 %. The procedure: (§3) Female nude mice (Charles River Laboratories, Wilmington, MA) were maintained and treated in accordance with the Institutional Animal Care and Use Committee procedures and guidelines. Exponentially growing MDA-MB-468 cells were harvested via trypsinization, pelleted at 400 g for 5 min. Cell pellets were re-suspended in DPBS (Invitrogen) at 10 x10^6 cells per 200 μl, and injected into right flank of mice. The tumor xenografts were monitored with an electronic caliper measurements and tumor volume (V) was calculated using the formula V= (W × L^2)/2, where width is the largest diameter and length is the smallest diameter. When the tumors reached ~ 250 mm^3, the animals were randomized and treatment schedules were implemented. Treatments consisted of intraperitoneal (i.p.) injections of vehicle control (50% polyethylene glycol (PG) + 15% 2-hydroxypropyl-beta-cyclodextrin (HPCD) (n=5) or AJI-100 (n=6) at 50 mg/kg, everyday for 14 days.

Data set [3] concerns MDA-MB-468 cells. Description: Soft agar anchorage-independent growth, MDA-MB-468. It counts as cell-based, human. Conditions: MDA-MB-468, increasing concentrations. On the procedure:
For analysis of anchorage-independent growth, log-phase growing cells were trypsinized, and triplicates of 1.5 × 10^3 cells per well were seeded in regular growth medium containing 0.3% agar (Sigma) and drug added at the indicated concentrations, as previously described. The cells were allowed to incubate at 37° C for 3 weeks and fed once per week with the inhibitor before 1 mg/ml MTT (Sigma) solution was added overnight to facilitate colony counting. Colonies were scored and counted according to size, as previously described.

The target in data set [4] is T1, JAK2 (Homo sapiens, UniProt O60674).
T1 construct: purchased Reaction Biology Inc
T1 sequence (O60674 whole entry): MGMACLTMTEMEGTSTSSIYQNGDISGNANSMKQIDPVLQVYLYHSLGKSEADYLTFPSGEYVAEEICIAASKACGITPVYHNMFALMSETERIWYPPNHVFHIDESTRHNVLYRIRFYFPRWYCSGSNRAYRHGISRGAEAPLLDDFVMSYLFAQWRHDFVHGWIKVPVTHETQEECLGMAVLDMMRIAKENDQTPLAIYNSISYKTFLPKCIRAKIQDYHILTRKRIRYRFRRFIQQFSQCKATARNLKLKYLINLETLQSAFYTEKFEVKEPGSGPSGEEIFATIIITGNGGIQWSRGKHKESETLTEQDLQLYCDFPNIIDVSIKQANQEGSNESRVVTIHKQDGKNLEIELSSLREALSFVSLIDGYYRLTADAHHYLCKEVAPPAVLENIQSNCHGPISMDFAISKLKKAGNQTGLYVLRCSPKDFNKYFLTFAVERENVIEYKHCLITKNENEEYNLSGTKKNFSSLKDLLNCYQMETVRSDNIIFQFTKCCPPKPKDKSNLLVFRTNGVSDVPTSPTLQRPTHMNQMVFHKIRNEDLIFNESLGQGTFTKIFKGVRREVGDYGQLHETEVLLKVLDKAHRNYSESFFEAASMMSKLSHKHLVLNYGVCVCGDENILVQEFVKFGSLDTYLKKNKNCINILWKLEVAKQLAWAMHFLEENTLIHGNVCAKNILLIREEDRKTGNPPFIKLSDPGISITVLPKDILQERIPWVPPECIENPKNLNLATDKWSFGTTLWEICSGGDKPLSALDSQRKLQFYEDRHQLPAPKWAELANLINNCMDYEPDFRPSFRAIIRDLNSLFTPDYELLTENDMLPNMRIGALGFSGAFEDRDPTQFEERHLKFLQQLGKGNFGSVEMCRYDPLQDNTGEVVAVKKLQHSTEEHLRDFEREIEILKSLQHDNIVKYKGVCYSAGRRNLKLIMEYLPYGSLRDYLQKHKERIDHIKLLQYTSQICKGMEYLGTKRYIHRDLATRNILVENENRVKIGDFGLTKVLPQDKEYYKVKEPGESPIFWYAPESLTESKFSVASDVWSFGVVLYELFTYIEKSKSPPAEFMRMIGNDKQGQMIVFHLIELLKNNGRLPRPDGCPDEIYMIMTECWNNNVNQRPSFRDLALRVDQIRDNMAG
Description: HotSpot kinase assay (Reaction Biology), JAK2. It counts as biochemical. Conditions: in vitro, HotSpot method.

In data set [5] the test system is MDA-MB-468 cells. In words: Matrigel Transwell invasion, MDA-MB-468. The settings on record: MDA-MB-468, 5 μM; for inhibition at 5 µM: Homo sapiens. It counts as cell-based, human. The procedure:
Cells were transfected with Aurora A and JAK2 for 48 h or with siRNA for 72 h or treated with the compounds for 24 h and then were trypsinized and resuspended in serum-free medium and placed in the upper chamber of the Matrigel-coated (0.8 μg/μL, BD Biosciences, San Diego, CA) Transwell insert (from 2 to 5 × 10^4 cells/well) and with 0.5% DMSO or the compounds at the indicated dose. Medium containing 10%FBS was placed in the lower chamber. […] Invading cells in the membrane were fixed with 100% methanol and stained with fresh prepared 0.2% crystal violet. Noninvasive cells in the upper chamber were removed by wiping the upper side of the membrane with a cotton swab, and cells located on the underside of the filter were observed and photographed under Olympus stereo microscope. The number of invading cells was counted using Image-Pro analysis software.

In data set [6] the test system is MDA-MB-468 tumor xenografts. Description: MDA-MB-468 tumor xenografts in nude mice. The settings on record: 50 mpk i.p. daily for 14 days. It counts as in vivo. The procedure: as §3
The subject of data set [7] is P-Histone H3 (Ser-10), Aurora B substrate. Description: Western blot, phosphorylation of Histone H3 in MDA-MB-468 cells. It counts as cell-based, human. Conditions: MDA-MB-468, increasing concentrations, 2 h. On the procedure: as §1, §2
Data set [8] deals with T2, Aurora A (Homo sapiens, UniProt O14965).
T2 construct: purchased Reaction Biology Inc
T2 sequence (O14965 1-403): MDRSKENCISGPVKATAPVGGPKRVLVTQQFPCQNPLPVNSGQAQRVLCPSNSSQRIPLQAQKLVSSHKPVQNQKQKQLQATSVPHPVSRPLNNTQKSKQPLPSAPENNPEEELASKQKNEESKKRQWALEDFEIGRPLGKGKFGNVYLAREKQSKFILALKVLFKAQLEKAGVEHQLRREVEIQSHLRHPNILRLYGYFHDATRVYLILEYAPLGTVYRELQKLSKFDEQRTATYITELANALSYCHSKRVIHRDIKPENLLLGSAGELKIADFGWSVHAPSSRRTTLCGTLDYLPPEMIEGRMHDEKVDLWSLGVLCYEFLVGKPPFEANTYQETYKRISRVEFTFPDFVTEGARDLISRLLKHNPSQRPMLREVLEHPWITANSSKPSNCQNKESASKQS
Description: HotSpot kinase assay (Reaction Biology), Aurora A. It counts as biochemical. The settings on record: in vitro, HotSpot method.

The target of data set [9] is T3, Aurora B (Homo sapiens, UniProt Q96GD4).
T3 construct: purchased Reaction Biology Inc
T3 sequence (Q96GD4 whole entry): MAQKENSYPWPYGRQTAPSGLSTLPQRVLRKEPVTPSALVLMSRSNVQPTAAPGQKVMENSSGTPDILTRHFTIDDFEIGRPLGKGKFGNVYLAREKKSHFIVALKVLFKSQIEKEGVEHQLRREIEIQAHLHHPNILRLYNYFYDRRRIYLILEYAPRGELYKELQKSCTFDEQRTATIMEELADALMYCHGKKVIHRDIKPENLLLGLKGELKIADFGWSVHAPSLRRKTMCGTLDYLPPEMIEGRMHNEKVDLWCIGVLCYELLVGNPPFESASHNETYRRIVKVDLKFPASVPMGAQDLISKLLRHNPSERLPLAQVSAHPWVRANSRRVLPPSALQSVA
Description: HotSpot kinase assay (Reaction Biology), Aurora B. It counts as biochemical. The settings on record: in vitro, HotSpot method.

Data set [10] concerns MDA-MB-468 cells. Description: Anchorage-dependent proliferation, MTT assay, MDA-MB-468. It counts as cell-based. Conditions: Homo sapiens; MDA-MB-468, MTT, 48 h. On the procedure:
Cells were cultured in 96 well plates at a density of 2,000 cells/ well. The cells with siRNA transfection or with the inhibitor treatment were monitored for viability using MTT at indicated time points. At the given time points, MTT reagent was added to the media and allowed to incubate for 3 h at 37° C in a humidified incubator at 5% CO2. The medium was then removed and MTT crystals were dissolved in DMSO (Sigma). Cell viability was quantified by reading the plates at an absorbance of 540 nm on a μQuant microplate reader using KC4 data analysis software (Bio-Tek Instruments). The 540 nm absorbance of vehicle-treated wells was used to define 100% proliferation. Each condition was performed in replicates of six wells.
(Tetrazolium dyes change colour on reduction, which living cells bring about.)

Data set [11] deals with FLT3. Set-up: method as in PMID 15126317. Conditions: cited from earlier work.

In general, IC50 refers to the concentration at which inhibition is half-maximal. As usually defined, the inhibition is the change of the read-out against control, counted positive when it falls. Regarding `NC(=O)c1ccc(Nc2ncc(F)c(Nc3ccccc3)n2)cc1` [AJI-100], the “effect on phosphorylation of STAT3 (Y705)” value in [1] is on record as “decreased”. Moreover, the “increase in mouse weights” value in data set [2] is 0.04%. Also, the “colony formation in soft agar” value in data set [3] was “inhibited colony formation”. Moreover, the IC50 in data set [4] amounted to 51 nM; in data set [8], 5.4 nM; in data set [9], 14 nM; in [10], 3600 nM. Moreover, the inhibition at 5 µM in data set [5] (48 hr) came out at 41.1%; in [5] (72 hr), 89.8%. Also, the invaded cells came out at 426 cells in [5] (48 hr, vehicle 723) and 104 cells in data set [5] (72 hr, vehicle 1020). For the same molecule, the “tumor volume after 14 day treatment, representative mouse” value in [6] (regressed from 222, vehicle grew 211 to 357) is 158 mm3. The “average % change in tumor volume (regression)” value in data set [6] (vehicle grew by 40 %) was found to be 9%. In addition, the “effect on phosphorylation of Histone H3 (Ser-10)” value in [7] is on record as “decreased”.
Regarding `C[C@]12O[C@H](C[C@]1(O)CO)n1c3ccccc3c3c4c(c5c6ccccc6n2c5c31)CNC4=O` [CEP-701], the IC50 in data set [11] is […].

(Values after publication PMC4102782, “Dual Aurora A and JAK2 kinase blockade effectively suppresses malignant transformation” (Oncotarget, 2014).)
